Laboratory results: patent US10800741B2 (ANCUREALL PHARMACEUTICAL (SHANGHAI) CO., LTD., priority 2017, dated 2020)

Columns and labels:
Assay type in all cases: cell-based, Human
H1581 (FGFR1 amp) = assay: In vitro growth inhibition of H1581 tumor cells (MTT/CCK8); conditions: Homo sapiens, NCI-H1581; in vitro growth inhibition (or induction of apoptosis), cells cultured 3 to 5 days, MTT (CCK8); read-out: IC50 H1581 (FGFR1 amp)
Text: (§1) Tumor cell lines are an effective model for studying in vitro tumor growth inhibition. In the present invention, a representative tumor cell line was selected to determine the cell growth inhibition activity of the present compound. All cell lines used were from ATCC, DSMZ, and cell banks of the Chinese Academy of Sciences. Cell culture conditions and methods were in accordance with the requirements of each cell line. Cells were subcultured in vitro for no more than 3 generations each time, and as required, single-clone purification and identification of cell lines could be carried out.
(§2) The cell culture media used were RPMI1640 (Gibco), DMEM (Gibco), MEM (Gibco), L15 (Gibco), IMDM (Gibco), McCOY'S5A, and William's (Gibco). 5-20% fetal bovine serum (Gibco), 1% double antibiotic, 2 mM glutamine, or 1 mM sodium pyruvate were added. The names, species, major gene characteristics, culture media and cell sources of the cell lines used are shown in table 1, wherein “amp” refers to gene amplification. “+++” refers to gene overexpression. The main genetic characteristics of cells were obtained from the COSMIC Cell Lines Project and related research papers, respectively.
(§3) Adherent cells were digested with 0.25% trypsin-EDTA (Gibco). Suspension culture cells were collected by centrifugation (1700 rpm, 3 minutes). The supernatant was discarded and the cells were counted. According to each cell growth cycle, different concentrations of cells were prepared (5˜10×10^4 cells per ml), and inoculated to 96-well plates (Corning), with 100 μl per well, and incubated overnight at 37° C., 5% CO2. The next day, the test compound was added to the cultured cells (2 wells in parallel). The final concentration of the solvent was less than 1/1,000. The cells were further cultured for 3 to 5 days and assayed by MTT.
(§4) The compound was stored at a concentration of 10 mM at −20° C. and diluted to 2- or 10-fold series prior to use. BGJ398 and AC220 were synthesized according to the methods of WO2006420A1 and US2007232604A1, respectively.
(§5) The adherent cells were taken out from the cell culture medium, and immediately added to a freshly prepared complete medium containing 10% CCK8 (5% FBS), 100 ul per hole. The suspended cells were directly added to a CCK8 reagent until reaching a final concentration of 10% and cultured for 1 to 4 hours.
(§6) T=optical density of drug-treated cell wells−optical density of blank control wells; T0=optical density of cell wells before drug treatment−optical density of blank control wells; C=optical density of solvent control wells−optical density of blank control wells. […] The experiments were repeated 1 to 3 times and a statistical analysis of data was conducted.

KATO III (FGFR2 amp) = assay: In vitro growth inhibition of KATO III tumor cells (MTT/CCK8); conditions: Homo sapiens, KATO III; in vitro growth inhibition (or induction of apoptosis), cells cultured 3 to 5 days, MTT (CCK8); read-out: IC50 KATO III (FGFR2 amp)
Text: as §1, §2, §3, §4, §5, §6

MOLM-13 (FLT3-ITD) = assay: In vitro growth inhibition of MOLM-13 tumor cells (MTT/CCK8); conditions: Homo sapiens, MOLM-13; in vitro growth inhibition (or induction of apoptosis), cells cultured 3 to 5 days, MTT (CCK8); read-out: IC50 MOLM-13 (FLT3-ITD)
Text: as §1, §2, §3, §4, §5, §6

COCCOc1cc2nccc(Oc3ccc(NC(=O)Nc4cc(C(C)(C)C)nn4CCN4CCOCC4)cc3)c2cc1NC(C)=O [Compound 122]
IC50 (H1581 (FGFR1 amp)): 69.4 nM
IC50 (KATO III (FGFR2 amp)): 0.27 nM
IC50 (MOLM-13 (FLT3-ITD)): 0.6 nM

COCCCOc1cc2nccc(Oc3ccc(NC(=O)Nc4cc(C(C)(C)C)n[nH]4)c(Cl)c3)c2cc1NC(C)=O [Compound 129, N-[4-{4-[3-(5-tert-butyl-2H-pyrazol-3-yl)-ureido]-3-chloro-phenoxy}-7-(3-methoxy-propoxy)-quinolin-6-yl]-acetamide]
IC50 (H1581 (FGFR1 amp)): 4.78 nM
IC50 (KATO III (FGFR2 amp)): 0.34 nM
IC50 (MOLM-13 (FLT3-ITD)): 4.88 nM

COCCOc1cc2nccc(Oc3ccc(NC(=O)Nc4cc(C(C)(C)C)nn4C4CC4)cc3)c2cc1NC(C)=O [Compound 118]
IC50 (H1581 (FGFR1 amp)): 19.3 nM
IC50 (KATO III (FGFR2 amp)): 0.38 nM
IC50 (MOLM-13 (FLT3-ITD)): 0.11 nM

CC(=O)Nc1cc2c(Oc3ccc(NC(=O)Nc4cc(C(C)(C)C)n[nH]4)c(Cl)c3)ccnc2cc1OCCCN1CCN(C)CC1 [Compound 130, N-{4-{4-[3-(5-tert-butyl-2H-pyrazol-3-yl)-ureido]-3-chloro-phenoxy}-7-[3-(4-methy-piperazin-1-yl)-propoxy]-quinolin-6-yl}-acetamide]
IC50 (H1581 (FGFR1 amp)): 1.12 nM
IC50 (KATO III (FGFR2 amp)): 0.54 nM
IC50 (MOLM-13 (FLT3-ITD)): 4.96 nM

COCCOc1cc2nccc(Oc3ccc(NC(=O)Nc4cc(C(C)(C)C)nn4CCN(C)C)c(Cl)c3)c2cc1NC(C)=O [Compound 127, N-[4-{4-[3-(5-tert-butyl-2-dimethylamino-ethyl-2H-pyrazol-3-yl)-ureido]-3-chloro-phenoxy}-7-(2-methoxy-ethoxy)-quinolin-6-yl]-acetamide]
IC50 (H1581 (FGFR1 amp)): 1.26 nM
IC50 (KATO III (FGFR2 amp)): 0.27 nM
IC50 (MOLM-13 (FLT3-ITD)): 2.56 nM

CC(C)(C)c1cc(NC(=O)Nc2ccc(Oc3ccnc4cc(OCCCN5CCOCC5)c(C(N)=O)cc34)cc2Cl)[nH]n1 [Compound 138, 4-{4-[3-(5-tert-butyl-2H-pyrazol-3-yl)-ureido]-3-chloro-phenoxy}-7-(3-morpholin-4-yl-propoxy)-quinolin-6-carboxamide]
IC50 (H1581 (FGFR1 amp)): 97.3 nM
IC50 (KATO III (FGFR2 amp)): 18.2 nM
IC50 (MOLM-13 (FLT3-ITD)): 21.3 nM

COCCOc1cc2nccc(Oc3ccc(NC(=O)Nc4cc(C(C)(C)C)nn4C4CCNCC4)cc3)c2cc1NC(C)=O [Compound 120, N-[4-{4-[3-(5-tert-butyl-2-piperidin-4-yl-2H-pyrazol-3-yl)-ureido]-phenoxy}-7-(2-methoxy-ethoxy)-quinolin-6-yl]-acetamide]
IC50 (H1581 (FGFR1 amp)): 78.6 nM
IC50 (KATO III (FGFR2 amp)): 13.5 nM
IC50 (MOLM-13 (FLT3-ITD)): 0.55 nM

COCCOc1cc2nccc(Oc3ccc(NC(=O)Nc4cc(C(C)(C)C)nn4C)c(Cl)c3)c2cc1NC(C)=O [Compound 124, N-[4-{4-[3-(5-tert-butyl-2-methyl-2H-pyrazol-3-yl)-ureido]-3-chloro-phenoxy}-7-(2-methoxy-ethoxy)-quinolin-6-yl]-acetamide]
IC50 (H1581 (FGFR1 amp)): 4.6 nM
IC50 (KATO III (FGFR2 amp)): 0.31 nM
IC50 (MOLM-13 (FLT3-ITD)): 1.01 nM

COCCOc1cc2nccc(Oc3ccc(NC(=O)Nc4cc(C(C)(C)C)nn4C4CCN(C)CC4)cc3)c2cc1NC(C)=O [Compound 121]
IC50 (H1581 (FGFR1 amp)): 19.5 nM
IC50 (KATO III (FGFR2 amp)): 0.5 nM
IC50 (MOLM-13 (FLT3-ITD)): 0.61 nM

CC(C)(C)c1cc(NC(=O)Nc2ccc(Oc3ccnc4cc(OCCCN5CCOCC5)c(C(N)=O)cc34)cc2Cl)n(C2CCCC2)n1 [Compound 140, 4-{4-[3-(5-tert-butyl-2-cyclopentyl-2H-pyrazol-3-yl)-ureido]-3-chloro-phenoxy}-7-(3-morpholin-4-yl-propoxy)-quinolin-6-carboxamide]
IC50 (H1581 (FGFR1 amp)): 115 nM
IC50 (KATO III (FGFR2 amp)): 23.7 nM
IC50 (MOLM-13 (FLT3-ITD)): 17.9 nM

COCCOc1cc2nccc(Oc3ccc(NC(=O)Nc4cc(C(C)(C)C)nn4CCN4CCOCC4)c(Cl)c3)c2cc1NC(C)=O [Compound 123, N-[4-(4-{3-[5-tert-butyl-2-(2-morpholin-4-yl-ethyl)-2H-pyrazol-3-yl]-ureido}-3-chloro-phenoxy)-7-(2-methoxy-ethoxy)-quinolin-6-yl]-acetamide]
IC50 (H1581 (FGFR1 amp)): 9.1 nM
IC50 (KATO III (FGFR2 amp)): < 0.05 nM
IC50 (MOLM-13 (FLT3-ITD)): 1.22 nM

COCCOc1cc2nccc(Oc3ccc(NC(=O)Nc4cc(C(C)(C)C)nn4C4CCN(C)CC4)c(Cl)c3)c2cc1NC(C)=O [Compound 126, N-[4-(4-{3-[5-tert-butyl-2-(1-methyl-piperidin-4-yl)-2H-pyrazol-3-yl]-ureido}-3-chloro-phenoxy)-7-(2-methoxy-ethoxy)-quinolin-6-yl]-acetamide]
IC50 (H1581 (FGFR1 amp)): 1.41 nM
IC50 (KATO III (FGFR2 amp)): 0.41 nM
IC50 (MOLM-13 (FLT3-ITD)): 7.62 nM

COCCOc1cc2nccc(Oc3ccc(NC(=O)Nc4cc(C(C)(C)C)n[nH]4)c(C)c3)c2cc1NC(C)=O [Compound 133, N-[4-{4-[3-(5-tert-butyl-2H-pyrazol-3-yl)-ureido]-3-methyl-phenoxy}-7-(2-methoxy-ethoxy)-quinolin-6-yl]-acetamide]
IC50 (H1581 (FGFR1 amp)): 8.04 nM
IC50 (KATO III (FGFR2 amp)): 1.56 nM
IC50 (MOLM-13 (FLT3-ITD)): 1.13 nM

CN1CCN(CCCOc2cc3nccc(Oc4ccc(NC(=O)Nc5cc(C(C)(C)C)nn5C5CCCC5)c(Cl)c4)c3cc2C(N)=O)CC1 [Compound 139]
IC50 (H1581 (FGFR1 amp)): 3.44 nM
IC50 (KATO III (FGFR2 amp)): 1.14 nM
IC50 (MOLM-13 (FLT3-ITD)): 9.87 nM

COCCOc1cc2nccc(Oc3ccc(NC(=O)Nc4cc(C(C)(C)C)nn4C4CC4)cc3F)c2cc1NC(C)=O [Compound 134]
IC50 (H1581 (FGFR1 amp)): 12.4 nM
IC50 (KATO III (FGFR2 amp)): 0.3 nM
IC50 (MOLM-13 (FLT3-ITD)): < 0.05 nM

COCCOc1cc2nccc(Oc3ccc(NC(=O)Nc4cc(C(C)(C)C)nn4CCN4CCOCC4)cc3F)c2cc1NC(C)=O [Compound 136, N-[4-(4-{3-[5-tert-butyl-2-(2-morpholin-4-yl-ethyl)-2H-pyrazol-3-yl]-ureido}-2-fluoro-phenoxy)-7-(2-methoxy-ethoxy)-quinolin-6-yl]-acetamide]
IC50 (H1581 (FGFR1 amp)): 39 nM
IC50 (KATO III (FGFR2 amp)): 0.4 nM
IC50 (MOLM-13 (FLT3-ITD)): 0.05 nM

COCCOc1cc2nccc(Oc3ccc(NC(=O)Nc4cc(C(C)(C)C)nn4C)cc3)c2cc1NC(C)=O [Compound 117, N-[4-{4-[3-(5-tert-butyl-2-methyl-2H-pyrazol-3-yl)-ureido]-phenoxy}-7-(2-methoxy-ethoxy)-quinolin-6-yl]-acetamide]
IC50 (H1581 (FGFR1 amp)): 9.72 nM
IC50 (KATO III (FGFR2 amp)): 0.17 nM
IC50 (MOLM-13 (FLT3-ITD)): 0.25 nM

COCCOc1cc2nccc(Oc3ccc(NC(=O)Nc4cc(C(C)(C)C)nn4CCN4CCOCC4)cc3Cl)c2cc1NC(C)=O [Compound 137, N-[4-(4-{3-[5-tert-butyl-2-(2-morpholin-4-yl-ethyl)-2H-pyrazol-3-yl]-ureido}-2-chloro-phenoxy)-7-(2-methoxy-ethoxy)-quinolin-6-yl]-acetamide]
IC50 (H1581 (FGFR1 amp)): 41.2 nM
IC50 (KATO III (FGFR2 amp)): 1.21 nM
IC50 (MOLM-13 (FLT3-ITD)): 0.34 nM

COCCOc1cc2nccc(Oc3ccc(NC(=O)Nc4cc(C(C)(C)C)nn4CCN(C)C)cc3)c2cc1NC(C)=O [Compound 119, N-[4-(4-{3-[5-tert-butyl-2-(2-dimethylamino-ethyl)-2H-pyrazol-3-yl]-ureido}-phenoxy)-7-(2-methoxyethoxy)-quinolin-6-yl]-acetamide]
IC50 (H1581 (FGFR1 amp)): 78.9 nM
IC50 (KATO III (FGFR2 amp)): 6.87 nM
IC50 (MOLM-13 (FLT3-ITD)): < 0.05 nM

COCCOc1cc2nccc(Oc3ccc(NC(=O)Nc4cc(C(C)(C)C)nn4C)cc3Cl)c2cc1NC(C)=O [Compound 135, N-[4-{4-[3-(5-tert-butyl-2-methyl-2H-pyrazol-3-yl)-ureido]-2-chloro-phenoxy}-7-(2-methoxy-ethoxy)-quinolin-6-yl]-acetamide]
IC50 (H1581 (FGFR1 amp)): 19.5 nM
IC50 (KATO III (FGFR2 amp)): 0.22 nM
IC50 (MOLM-13 (FLT3-ITD)): 0.11 nM

COCCOc1cc2nccc(Oc3ccc(NC(=O)Nc4cc(C(C)(C)C)n[nH]4)cc3)c2cc1NC(C)=O [Compound 116, N-[4-{4-[3-(5-tert-butyl-2H-pyrazol-3-yl)-ureido]-phenoxy}-7-(2-methoxy-ethoxy)-quinolin-6-yl]-acetamide]
IC50 (H1581 (FGFR1 amp)): 9.01 nM
IC50 (KATO III (FGFR2 amp)): 1.97 nM
IC50 (MOLM-13 (FLT3-ITD)): 0.095 nM

CC(=O)Nc1cc2c(Oc3ccc(NC(=O)Nc4cc(C(C)(C)C)n[nH]4)c(Cl)c3)ccnc2cc1OCCN1CCOCC1 [Compound 132, N-[4-{4-[3-(5-tert-butyl-2H-pyrazol-3-yl)-ureido]-3-chloro-phenoxy}-7-(2-morpholin-4-yl-ethoxy)-quinolin-6-yl]-acetamide]
IC50 (H1581 (FGFR1 amp)): 3.91 nM
IC50 (KATO III (FGFR2 amp)): 1.34 nM
IC50 (MOLM-13 (FLT3-ITD)): 0.98 nM

CC(=O)Nc1cc2c(Oc3ccc(NC(=O)Nc4cc(C(C)(C)C)n[nH]4)c(Cl)c3)ccnc2cc1OCCO [Compound 131]
IC50 (H1581 (FGFR1 amp)): 19.5 nM
IC50 (KATO III (FGFR2 amp)): 11.6 nM
IC50 (MOLM-13 (FLT3-ITD)): 14.7 nM
